Laboratory results: article PMC12281424, “A Rac-specific competitive inhibitor of guanine nucleotide binding reduces metastasis in triple-negative breast cancer” (Cell Reports Medicine, 2025)
Values joined by “and” are separate entries in the source; they are usually repeats but may differ in a detail not shown here. Identical values can stand only once. “Also recorded” adds a separate entry of the source.

How the values were obtained:
[1] = target: MAP4K5(h) (Homo sapiens, UniProt Q9Y4K4); experiment: Kinase Profiler; format: biochemical
Experimental: (§1) The kinase profiler was performed by the company Eurofins (Discovery, Panlab and Cerep).

[2] = target: SIK(h) (Homo sapiens, UniProt P57059); experiment: Kinase Profiler; format: biochemical
Experimental: as §1

[3] = target: Plk1(h) (Homo sapiens, UniProt P53350); experiment: Kinase Profiler; format: biochemical
Experimental: as §1

[4] = target: PKCδ(h) (Homo sapiens, UniProt Q05655); experiment: Kinase Profiler; format: biochemical
Experimental: as §1

[5] = target: LOK(h) (Homo sapiens, UniProt O94804); experiment: Kinase Profiler; format: biochemical
Experimental: as §1

[6] = target: Tie2(Y897S)(h) (Homo sapiens, UniProt Q02763, Y897S); experiment: Kinase Profiler; format: biochemical
Experimental: as §1

[7] = target: Pyk2(h) (Homo sapiens, UniProt Q14289); experiment: Kinase Profiler; format: biochemical
Experimental: as §1

[8] = target: KDR(h) (Homo sapiens, UniProt P35968); experiment: Kinase Profiler; format: biochemical
Experimental: as §1

[9] = test system: TA98; experiment: Bacterial cytotoxicity; format: cell-based
Text: Data S2. Bacterial cytotoxicity of A41.
Test Concentration %Effect Cytotoxicity (% of control)

[10] = target: MOK(h) (Homo sapiens, UniProt Q9UQ07); experiment: Kinase Profiler; format: biochemical
Experimental: as §1

[11] = target: Src(T341M)(h) (Homo sapiens, UniProt P12931, T341M); experiment: Kinase Profiler; format: biochemical
Experimental: as §1

[12] = target: PIP5K1g(h) (Homo sapiens, UniProt O60331); experiment: Kinase Profiler; format: biochemical
Experimental: (§2) Blood cell counts, kinase profiler, safety screen, bacterial cytotoxicity, Ames, micronucleus assays were performed by the company Eurofins (France). The kinase profiler was performed by the company Eurofins (Discovery, Panlab and Cerep).

[13] = test system: CT26 cells; experiment: Colorectal tumor model (hepatic metastasis); format: in vivo, mouse; details: 25 mg/kg/day i.p., 2 weeks after s.c. implantation
Text: Figure 7 A41 decreases metastasis of colorectal cancer cells in vivo (A–C) Therapeutic effect of A41 on the pulmonary metastasis formation of colorectal circulating tumoral cells (CT26 cells). In control, A41-, and cisplatin-treated mice, metastasis surface (A), survival (B), and body weight (C) were quantified (N = 10 mice; ∗p < 0.05 vs. controls). (D) Therapeutic effect of A41 on colorectal tumor-dependent hepatic metastasis formation (N = 5–8 mice; ∗p < 0.05, ∗∗p < 0.01, and ∗∗∗p < 0.001 vs. controls).
8 weeks-old BALB/c female mice were obtained from the School of Veterinary Sciences at the National University of La Plata and treated in accordance with the Canadian Council on Animal Care and ARRIVE guidelines. 1x10^6 CT26 viable cells were resuspended in PBS (100 μL) and injected subcutaneously into the right flank of each animal. Mice were distributed and treated as follows: control, consist in a daily intraperitoneal (ip) administration of vehicle (5% DMSO, 45% PEG400); A41, ip administration of 25 mg/kg BW/day; 5-FU, ip administration 20 mg/kgBW/week in sterile water; A41+5-FU, ip administration of A41 and 5-FU treatments. Liver metastases were identified and quantified under a stereoscopic magnifying glass. These lesions were distinguished by their isolated circular shape, their marked whitish color contrasting with the reddish liver tissue, and their raised appearance.

[14] = target: Serotonin (5-Hydroxytryptamine) 5-HT1B (Homo sapiens, UniProt P28222); experiment: Safety screen; format: binding
Experimental: as §2

[15] = target: Flt4(h) (Homo sapiens, UniProt P35916); experiment: Kinase Profiler; format: biochemical
Experimental: as §1

[16] = target: Serotonin (5-Hydroxytryptamine) 5-HT2C (Homo sapiens, UniProt P28335); experiment: Safety screen; format: binding
Experimental: (§3) Blood cell counts, kinase profiler, safety screen, bacterial cytotoxicity, Ames, micronucleus assays were performed by the company Eurofins (France).

[17] = test system: Sodium Channel, Site 2; experiment: Safety screen; format: binding, rat
Experimental: as §3

[18] = target: Adrenergic β1 (Homo sapiens, UniProt P08588); experiment: Safety screen; format: binding
Experimental: as §2

[19] = target: TSSK3(h) (Homo sapiens, UniProt Q96PN8); experiment: Kinase Profiler; format: biochemical
Experimental: as §1

[20] = target: DYRK1B(h) (Homo sapiens, UniProt Q9Y463); experiment: Kinase Profiler; format: biochemical
Experimental: as §1

[21] = target: PI3K (p110a(H1047R)/p85a)(m) (Mus musculus, UniProt P42337, H1047R); experiment: Kinase Profiler; format: biochemical
Experimental: as §2

[22] = target: HIPK4(h) (Homo sapiens, UniProt Q8NE63); experiment: Kinase Profiler; format: biochemical
Experimental: as §1

[23] = target: LTK(h) (Homo sapiens, UniProt P29376); experiment: Kinase Profiler; format: biochemical
Experimental: as §1

[24] = target: OSR1(h) (Homo sapiens, UniProt O95747); experiment: Kinase Profiler; format: biochemical
Experimental: as §2

[25] = target: Abl(Y253F)(h) (Homo sapiens, UniProt P00519, Y253F); experiment: Kinase Profiler; format: biochemical
Experimental: as §1

[26] = target: cKit(V654A)(h) (Homo sapiens, UniProt P10721, V654A); experiment: Kinase Profiler; format: biochemical
Experimental: as §2

[27] = target: Monoamine Oxidase MAO-B (Homo sapiens, UniProt P27338); experiment: Safety screen; format: biochemical
Experimental: as §3

[28] = target: Nicotinic Acetylcholine α1, Bungarotoxin (Homo sapiens, UniProt P02708+P07510+Q07001); experiment: Safety screen; format: binding
[29] = target: AAK1(h) (Homo sapiens, UniProt Q2M2I8); experiment: Kinase Profiler; format: biochemical
AAK1(h), sequence (Q2M2I8 whole entry): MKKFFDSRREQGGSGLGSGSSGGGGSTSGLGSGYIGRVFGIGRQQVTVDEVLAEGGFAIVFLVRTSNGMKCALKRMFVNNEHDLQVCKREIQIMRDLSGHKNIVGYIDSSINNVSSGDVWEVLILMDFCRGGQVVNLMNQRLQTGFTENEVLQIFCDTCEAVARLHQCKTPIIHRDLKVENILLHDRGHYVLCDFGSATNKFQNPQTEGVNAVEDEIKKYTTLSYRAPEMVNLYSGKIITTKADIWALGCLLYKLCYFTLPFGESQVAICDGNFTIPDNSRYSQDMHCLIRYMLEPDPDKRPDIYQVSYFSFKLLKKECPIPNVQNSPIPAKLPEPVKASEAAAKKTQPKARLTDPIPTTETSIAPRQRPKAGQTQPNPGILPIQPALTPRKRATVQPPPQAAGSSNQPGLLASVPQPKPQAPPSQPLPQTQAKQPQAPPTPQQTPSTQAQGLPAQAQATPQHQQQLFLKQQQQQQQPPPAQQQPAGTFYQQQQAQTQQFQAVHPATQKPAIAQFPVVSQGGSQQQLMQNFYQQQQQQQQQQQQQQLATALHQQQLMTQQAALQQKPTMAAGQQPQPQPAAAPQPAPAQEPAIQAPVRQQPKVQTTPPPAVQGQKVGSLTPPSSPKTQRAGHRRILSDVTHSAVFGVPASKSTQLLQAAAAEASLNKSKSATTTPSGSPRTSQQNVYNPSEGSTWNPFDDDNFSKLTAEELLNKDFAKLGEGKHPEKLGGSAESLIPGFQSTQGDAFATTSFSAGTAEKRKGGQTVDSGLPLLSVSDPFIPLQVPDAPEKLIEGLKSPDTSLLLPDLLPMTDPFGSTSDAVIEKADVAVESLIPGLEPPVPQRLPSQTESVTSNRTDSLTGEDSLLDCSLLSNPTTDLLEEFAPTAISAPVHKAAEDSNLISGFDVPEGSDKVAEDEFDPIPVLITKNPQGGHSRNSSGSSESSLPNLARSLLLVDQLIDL
Experimental: as §1

Adrenergic β1, sequence (P08588 whole entry): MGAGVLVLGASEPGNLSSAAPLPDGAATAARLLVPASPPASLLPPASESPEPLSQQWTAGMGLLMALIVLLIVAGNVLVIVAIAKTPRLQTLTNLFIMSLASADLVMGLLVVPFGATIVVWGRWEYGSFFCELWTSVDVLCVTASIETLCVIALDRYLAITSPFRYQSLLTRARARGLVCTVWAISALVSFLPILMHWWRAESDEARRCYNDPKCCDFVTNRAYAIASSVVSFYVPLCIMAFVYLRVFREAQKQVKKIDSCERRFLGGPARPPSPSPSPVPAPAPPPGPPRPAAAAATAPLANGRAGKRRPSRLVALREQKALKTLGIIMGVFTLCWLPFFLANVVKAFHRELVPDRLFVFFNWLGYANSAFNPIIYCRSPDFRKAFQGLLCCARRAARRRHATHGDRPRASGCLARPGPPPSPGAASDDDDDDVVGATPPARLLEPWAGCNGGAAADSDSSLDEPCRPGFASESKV
Nicotinic Acetylcholine α1, Bungarotoxin, sequence (P02708 21-457): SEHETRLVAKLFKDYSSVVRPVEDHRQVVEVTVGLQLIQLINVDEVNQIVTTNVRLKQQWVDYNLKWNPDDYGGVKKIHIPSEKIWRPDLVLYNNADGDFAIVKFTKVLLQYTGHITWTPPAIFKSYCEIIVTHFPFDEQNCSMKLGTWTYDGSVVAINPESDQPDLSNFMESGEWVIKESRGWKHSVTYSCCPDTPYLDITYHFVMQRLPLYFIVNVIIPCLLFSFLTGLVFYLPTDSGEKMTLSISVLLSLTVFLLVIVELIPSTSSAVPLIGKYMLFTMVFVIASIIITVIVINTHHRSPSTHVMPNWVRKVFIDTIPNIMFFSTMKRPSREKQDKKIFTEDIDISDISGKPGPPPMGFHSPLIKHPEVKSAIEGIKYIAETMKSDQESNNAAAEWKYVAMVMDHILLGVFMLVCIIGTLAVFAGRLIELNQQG
Nicotinic Acetylcholine α1, Bungarotoxin, sequence (Q07001 22-517): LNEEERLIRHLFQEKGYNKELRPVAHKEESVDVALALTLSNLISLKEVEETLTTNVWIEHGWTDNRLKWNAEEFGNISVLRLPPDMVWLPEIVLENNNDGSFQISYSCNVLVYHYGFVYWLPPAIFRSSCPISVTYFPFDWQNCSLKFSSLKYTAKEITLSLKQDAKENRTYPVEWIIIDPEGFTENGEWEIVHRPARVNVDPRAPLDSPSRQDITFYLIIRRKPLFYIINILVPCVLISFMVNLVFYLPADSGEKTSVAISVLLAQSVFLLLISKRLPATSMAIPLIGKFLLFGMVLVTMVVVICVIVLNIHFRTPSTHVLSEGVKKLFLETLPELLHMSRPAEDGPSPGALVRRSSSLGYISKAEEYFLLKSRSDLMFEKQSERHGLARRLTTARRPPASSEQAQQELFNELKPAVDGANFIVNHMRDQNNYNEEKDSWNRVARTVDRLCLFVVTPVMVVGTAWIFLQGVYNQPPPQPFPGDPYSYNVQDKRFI
Nicotinic Acetylcholine α1, Bungarotoxin, sequence (P07510 23-517): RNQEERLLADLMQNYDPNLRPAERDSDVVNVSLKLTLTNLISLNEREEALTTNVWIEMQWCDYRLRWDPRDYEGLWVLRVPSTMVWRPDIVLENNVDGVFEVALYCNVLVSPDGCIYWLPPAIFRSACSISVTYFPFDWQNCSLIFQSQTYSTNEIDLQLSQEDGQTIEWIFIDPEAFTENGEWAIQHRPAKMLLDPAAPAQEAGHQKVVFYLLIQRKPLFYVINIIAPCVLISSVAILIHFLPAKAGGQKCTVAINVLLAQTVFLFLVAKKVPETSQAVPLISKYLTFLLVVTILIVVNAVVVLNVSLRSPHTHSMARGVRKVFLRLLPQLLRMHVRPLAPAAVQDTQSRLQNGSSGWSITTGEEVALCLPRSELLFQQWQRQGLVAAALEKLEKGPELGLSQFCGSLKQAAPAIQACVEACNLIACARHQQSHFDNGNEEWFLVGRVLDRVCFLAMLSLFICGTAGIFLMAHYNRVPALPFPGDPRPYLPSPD
Nicotinic Acetylcholine α1, Bungarotoxin, sequence (P11230 24-501, further chain): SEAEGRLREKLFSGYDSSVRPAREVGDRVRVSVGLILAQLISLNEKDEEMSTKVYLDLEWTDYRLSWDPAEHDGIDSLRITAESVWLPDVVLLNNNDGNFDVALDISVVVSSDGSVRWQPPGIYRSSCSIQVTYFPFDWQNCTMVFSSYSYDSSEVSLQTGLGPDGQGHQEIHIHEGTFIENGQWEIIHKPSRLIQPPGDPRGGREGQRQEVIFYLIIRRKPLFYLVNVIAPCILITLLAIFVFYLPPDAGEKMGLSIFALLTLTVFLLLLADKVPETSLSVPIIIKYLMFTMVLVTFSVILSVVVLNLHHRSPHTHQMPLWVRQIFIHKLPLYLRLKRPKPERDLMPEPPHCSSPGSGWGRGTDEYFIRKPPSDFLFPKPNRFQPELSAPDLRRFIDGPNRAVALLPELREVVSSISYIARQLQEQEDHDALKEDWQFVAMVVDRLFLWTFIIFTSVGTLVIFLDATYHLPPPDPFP
LTK(h), sequence (P29376 17-864): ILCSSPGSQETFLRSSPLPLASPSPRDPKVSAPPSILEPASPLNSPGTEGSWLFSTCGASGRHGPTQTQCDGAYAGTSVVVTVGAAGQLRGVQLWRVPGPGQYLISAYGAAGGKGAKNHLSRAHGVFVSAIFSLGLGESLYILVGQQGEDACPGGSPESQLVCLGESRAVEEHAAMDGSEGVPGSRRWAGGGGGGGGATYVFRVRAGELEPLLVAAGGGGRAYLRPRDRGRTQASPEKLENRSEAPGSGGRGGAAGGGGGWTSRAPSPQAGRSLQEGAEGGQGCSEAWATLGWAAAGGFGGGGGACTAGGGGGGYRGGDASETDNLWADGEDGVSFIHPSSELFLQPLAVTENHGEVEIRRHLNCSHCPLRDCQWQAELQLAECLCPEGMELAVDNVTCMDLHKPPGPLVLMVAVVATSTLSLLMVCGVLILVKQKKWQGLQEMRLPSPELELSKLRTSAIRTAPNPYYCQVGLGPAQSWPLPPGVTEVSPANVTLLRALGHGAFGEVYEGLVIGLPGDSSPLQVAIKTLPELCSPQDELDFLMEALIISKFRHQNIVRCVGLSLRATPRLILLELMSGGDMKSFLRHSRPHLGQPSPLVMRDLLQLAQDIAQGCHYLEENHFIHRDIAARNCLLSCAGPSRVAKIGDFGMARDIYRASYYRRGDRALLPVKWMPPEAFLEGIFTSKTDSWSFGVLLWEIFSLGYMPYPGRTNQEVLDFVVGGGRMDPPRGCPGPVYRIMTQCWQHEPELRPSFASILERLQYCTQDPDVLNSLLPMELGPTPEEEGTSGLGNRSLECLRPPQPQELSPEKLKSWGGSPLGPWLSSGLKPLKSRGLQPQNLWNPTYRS
Monoamine Oxidase MAO-B, sequence (P27338 whole entry): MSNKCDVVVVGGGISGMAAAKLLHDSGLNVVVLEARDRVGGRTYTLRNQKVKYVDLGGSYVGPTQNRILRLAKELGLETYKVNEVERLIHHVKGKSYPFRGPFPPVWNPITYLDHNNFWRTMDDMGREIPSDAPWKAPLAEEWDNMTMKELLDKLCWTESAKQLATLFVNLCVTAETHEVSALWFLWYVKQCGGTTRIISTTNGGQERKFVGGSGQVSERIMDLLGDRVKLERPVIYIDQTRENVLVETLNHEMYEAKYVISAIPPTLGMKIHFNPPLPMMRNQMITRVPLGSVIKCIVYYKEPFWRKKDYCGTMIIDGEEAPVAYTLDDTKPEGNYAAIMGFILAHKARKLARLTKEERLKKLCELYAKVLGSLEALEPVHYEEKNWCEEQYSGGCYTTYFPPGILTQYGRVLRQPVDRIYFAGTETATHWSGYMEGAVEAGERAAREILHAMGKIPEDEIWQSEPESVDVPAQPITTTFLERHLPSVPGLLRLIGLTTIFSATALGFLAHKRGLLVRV
TSSK3(h), sequence (Q96PN8 whole entry): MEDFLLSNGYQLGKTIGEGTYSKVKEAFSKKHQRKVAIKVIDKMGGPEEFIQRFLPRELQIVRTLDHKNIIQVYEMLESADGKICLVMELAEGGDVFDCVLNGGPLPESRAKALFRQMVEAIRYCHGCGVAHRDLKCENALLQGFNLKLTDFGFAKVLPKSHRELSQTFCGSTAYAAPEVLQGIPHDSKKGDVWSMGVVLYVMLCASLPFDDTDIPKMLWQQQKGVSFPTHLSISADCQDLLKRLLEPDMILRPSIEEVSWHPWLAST

COc1ccc(OC)c(NS(=O)(=O)c2ccc(NC(=O)CCSc3ccc(C)cc3)cc2)c1 [Compound A41]
Activity(%) [1]: 102%
Activity(%) [2]: 144%
Activity(%) [3]: 106%
Activity(%) [4]: 110%
Activity(%) [5]: 112%
Activity(%) [6]: 109%
Activity(%) [7]: 92%
Activity(%) [8]: 113%
%Effect, single replicates (1st, 2nd, 3rd) ([9]; - S9, 1.0E-04 M): 154.6% and 177.5% and 143.7%
Cytotoxicity (% of control), Mean %Effect ([9]; - S9, 1.0E-04 M): 158.6%
%Effect, single replicates (1st, 2nd, 3rd) ([9]; - S9, 1.0E-05 M): 82.4% and 76.9% and 77.8%
Cytotoxicity (% of control), Mean %Effect ([9]; - S9, 1.0E-05 M): 79.0%
%Effect, single replicates (1st, 2nd, 3rd) ([9]; - S9, 1.2E-06 M): 89.7% and 74.1% and 55.8%
Cytotoxicity (% of control), Mean %Effect ([9]; - S9, 1.2E-06 M): 73.2%
%Effect, single replicates (1st, 2nd, 3rd) ([9]; - S9, 2.5E-05 M): 95.2% and 92.4% and 83.3%
Cytotoxicity (% of control), Mean %Effect ([9]; - S9, 2.5E-05 M): 90.3%
%Effect, single replicates (1st, 2nd, 3rd) ([9]; - S9, 2.5E-06 M): 80.5% and 83.3% and 82.4%
Cytotoxicity (% of control), Mean %Effect ([9]; - S9, 2.5E-06 M): 82.0%
%Effect, single replicates (1st, 2nd, 3rd) ([9]; - S9, 5.0E-05 M): 88.8% and 83.3% and 75.9%
Cytotoxicity (% of control), Mean %Effect ([9]; - S9, 5.0E-05 M): 82.7%
%Effect, single replicates (1st, 2nd, 3rd) ([9]; - S9, 5.0E-06 M): 88.8% and 84.2% and 81.4%
Cytotoxicity (% of control), Mean %Effect ([9]; - S9, 5.0E-06 M): 84.8%
%Effect, single replicates (1st, 2nd, 3rd) ([9]; - S9, 6.0E-07 M): 92.4% and 82.4% (2×)
Cytotoxicity (% of control), Mean %Effect ([9]; - S9, 6.0E-07 M): 85.7%
Activity(%) [10]: 90%
Activity(%) [11]: 89%
Activity(%) [12]: 104%
number of liver metastases [13]: significantly reduced the number of metastases; also recorded: more effective than 5-fluorouracil (5FU)
% inh. [14]: 15%
Activity(%) [15]: 92%
% inh. [16]: 56%
% inh. [17]: 57%
% inh. [18]: 2%
Activity(%) [19]: 104%
Activity(%) [20]: 96%
Activity(%) [21]: 100%
Activity(%) [22]: 105%
Activity(%) [23]: 113%
Activity(%) [24]: 103%
Activity(%) [25]: 102%
Activity(%) [26]: 99%
% inh. [27]: 17%
% inh. [28]: 0%
Activity(%) [29]: 105%
